Test results: patent US11964938B2, “3-phenyl-4-hexynoic acid derivatives as GPR40 agonists” (CELON PHARMA S.A., priority 2018, dated 2024)

Tests used:
[1] = target: T1, human GPR40 receptor (Homo sapiens, UniProt O14842); experiment: Analysis of receptor activation - calcium ions concentration measurement (aequorin luminescence); type: cell-based; conditions: enhancement or decrease of activity in relation to reference TAK-875, from EC50 values
T1 construct: host or cells: CHO-K1 (co-expressing aequorin)
T1 sequence (O14842 whole entry): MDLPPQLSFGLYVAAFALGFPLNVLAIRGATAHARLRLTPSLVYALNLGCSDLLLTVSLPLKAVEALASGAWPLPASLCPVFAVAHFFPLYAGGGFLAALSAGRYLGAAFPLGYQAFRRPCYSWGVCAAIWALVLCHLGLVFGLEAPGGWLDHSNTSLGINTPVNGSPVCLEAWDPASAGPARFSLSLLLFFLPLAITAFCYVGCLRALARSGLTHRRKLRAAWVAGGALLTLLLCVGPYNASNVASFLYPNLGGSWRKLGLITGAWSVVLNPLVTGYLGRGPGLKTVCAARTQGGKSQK
Text: Experiment B1: Analysis of Receptor Activation—Calcium Ions Concentration Measurement.
As a result of the measurement, luminescence change in the time curve were obtained, the integration of which allowed to calculate the relative amount of calcium ions released to cytosol. […] Curves plotted from obtained results allowed to determine EC50 values.

[2] = test system: Wistar HAN Crl:WI (HAN) rats; experiment: Glucose tolerance test in vivo on rats; design: species or system rat; conditions: 10 mg/kg oral single dose, blood; for AUC for glucose (0-540 min.): i.p. glucose bolus at t=0 and 6 h; for AUC for insulin (0-180 min.): i.p. glucose bolus
Procedure: Experiment B3: Glucose Tolerance Test In Vivo on Rats.
To evaluate glucose lowering effect of the compounds in in vivo study, glucose tolerance test (GTT) was performed. The study was performed on male outbred Wistar HAN Crl:WI (HAN) rats from Charles River, weight about 250-300 g, 8-10 weeks old. Rats were starved for 12 hours (with free access to water).
At time point t=0 animals were given orally a single dose of a compound (by a gastric tube) and immediately (t=0) and after 6 hour (t=6 h) intraperitoneal (i.p.) glucose bolus ([…]). At time points t=0 (just before oral administration of the compounds and intraperitoneal glucose administration), 0.25, 0.5, 1, 2, 2.5, 3, 6, 6.25, 7, 8, and 9 h blood samples from tail vein were collected from each animal for glucose level determination using Accu-chek glucometer (Roche Diagnostics) and additionally at t=0.25, 0.5, 1, 2, 2.5, and 3 h blood samples from tail vein were collected for insulin level measurement using ELISA test (Mercodia).
Tested compound were prepared in 5% DMSO/40% PEG300/55% PBS vehicle and administered at the dose of 10 mg/kg body weight in a volume of 0.5 ml/100 g body weight. After 4 hours after tested compound administration animals were given standard diet to the cages. Decrease of AUC value for glucose level in blood was calculated and the results for selected compounds of the invention are presented in Table 5. Analysis was performed using GraphPad prism software.

[3] = test system: MIN6 (mouse insulinoma) cells; experiment: Glucose-dependent insulin release in mouse insulinoma cells (MIN6); type: cell-based; conditions: multiplicity of insulin efflux increase in relation to control; 10 uM compound, 20 mM glucose, 1 hour
Procedure: Experiment B2: Glucose-Dependent Insulin Release in Mouse Insulinoma Cells (MIN6).
MIN6 (mouse insulinoma) cells were seeded on a plate covered with PDL (poly-D-lysine) at 5×10^5/well and cultured for 48 hours. […] Tested compounds, after dilution to the concentration of 10-40 uM in KRBH buffer with the addition of 20 mM glucose, were added to the cells and incubated for 1 hour to induce insulin release. Negative control was KRBH buffer with the addition of 2 mM glucose. Concentration of released insulin was determined using ELISA test (Mercodia).
Table 4 present MIN6Insulin @10 uM values for representative compounds of the invention. MIN6Insulin @10 uM value is a multiplicity of insulin efflux increase in relation to control experiment, following addition of 10 uM of tested compound.

[4] = I phase of clinical trials; cited from earlier work
[5] = test system: diabetes STZ-treated mice; experiment: Von Frey test on diabetes STZ-treated mice (tactile allodynia); type: in vivo, mouse; conditions: 60 minutes after administration, mean of group
Procedure: Experiment B5: Von Frey Test on Diabetes STZ-Treated Mice.
Tactile allodynia was assessed by electronic von Frey apparatus (Bioseb) equipped with a flexible filament. Reaction to stimuli was assessed using growing applied pressure (from 0 to 10 g) on a plantar side of the hind foot of mice. Pregabalin was a control, as reference healthy mice with preserved normal response to the stimuli were used. In the day of the experiment, mice were placed separately in cages with a wire mesh bottom for 1 h for habituation to experimental conditions. After habituation period, each mouse was treated 3 times alternately, with 30 s intervals between each measurement, to obtain starting values (before administration of the compound) of pain sensitivity. […] The results are presented in Table 7 as mean value for all mice in a given group (n=7-10).

CC#C[C@@H](CC(=O)O)c1ccc(OC(C)C(C)C)cc1 (mixture of isomers) [Example F13, (3S)-3-(4-{[(2R/S)-3-methylbutan-2-yl]oxy}phenyl)hex-4-ynoic acid]
% PTAK-875 [1]: A (>120% PTAK-875)

CC#C[C@@H](CC(=O)O)c1ccc(OCC(C)C(C)C)cc1 (mixture of isomers) [Example F37, (3S)-3-{4-[(2R/S)-2,3-dimethylbutoxy]phenyl}hex-4-ynoic acid]
% PTAK-875 [1]: A (>120% PTAK-875)

CC#C[C@@H](CC(=O)O)c1ccc(OCCC(C)CC)cc1 (mixture of isomers) [Example F38, (3S)-3-(4-{[(3R/S)-3-methylpentyl]oxy}phenyl)hex-4-ynoic acid]
% PTAK-875 [1]: B (81-120% PTAK-875)

CC#CC(CC(=O)O)c1ccc(OC/C=C(\C)CC/C=C(\C)CCC=C(C)C)cc1 (racemic) [Example F11, (3R/S)-3-(4-{[(2E,6E)-3,7,11-trimethyldodeca-2,6,10-trien-1-yl]oxy}-phenyl)hex-4-ynoic acid]
% PTAK-875 [1]: D (21-50% PTAK-875)

CC#CC(CC(=O)O)c1ccc(OCC(C)(C)C)cc1 (racemic) [Example F26, (3R/S)-3-[4-(2,2-dimethylpropoxy)phenyl]hex-4-ynoic acid]
% PTAK-875 [1]: E (<20% PTAK-875)

CC#C[C@@H](CC(=O)O)c1ccc(OCCC)cc1 [Example F1, (3S)-3-(4-propoxyphenyl)hex-4-ynoic acid]
% PTAK-875 [1]: D (21-50% PTAK-875)

CC#C[C@@H](CC(=O)O)c1ccc(OCCCC)cc1 [Example F2, (3S)-3-(4-butoxyphenyl)hex-4-ynoic acid]
% PTAK-875 [1]: A (>120% PTAK-875)

CC#C[C@@H](CC(=O)O)c1ccc(OCCCCCC)cc1 [Example F4, (3S)-3-[4-(hexyloxy)phenyl]hex-4-ynoic acid]
% PTAK-875 [1]: A (>120% PTAK-875)

CC#C[C@@H](CC(=O)O)c1ccc(OCCCCCCC)cc1 [Example F5, (3S)-3-[4-(heptyloxy)phenyl]hex-4-ynoic acid]
% PTAK-875 [1]: A (>120% PTAK-875)

CC#C[C@@H](CC(=O)O)c1ccc(OC/C=C(\C)CCC=C(C)C)cc1 [Example F6, (3S)-3-(4-{[(2E)-3,7-dimethylocta-2,6-dien-1-yl]oxy}phenyl)hex-4-ynoic acid]
AUC for glucose (0-540 min.) [2]: 25184.1
AUC for insulin (0-180 min.) [2]: 492.5

CC#C[C@@H](CC(=O)O)c1ccc(OC(CC)CC)cc1 [Example F17, (3S)-3-[4-(pentan-3-yloxy)phenyl]hex-4-ynoic acid]
% PTAK-875 [1]: E (<20% PTAK-875)

CC#C[C@@H](CC(=O)O)c1ccc(OC/C=C/CCC)cc1 [Example F18, (3S)-3-{4-[(2E)-hex-2-en-1-yloxy]phenyl}hex-4-ynoic acid]
% PTAK-875 [1]: A (>120% PTAK-875)

CC#C[C@@H](CC(=O)O)c1ccc(OC/C=C/C=C/C)cc1 [Example F19, (3S)-3-{4-[(2E,4E)-hexa-2,4-dien-1-yloxy]phenyl}hex-4-ynoic acid]
% PTAK-875 [1]: A (>120% PTAK-875)

C=CCCCOc1ccc([C@@H](C#CC)CC(=O)O)cc1 [Example F20, (3S)-3-[4-(pent-4-en-1-yloxy)phenyl]hex-4-ynoic acid]
% PTAK-875 [1]: B (81-120% PTAK-875)

CC#CCCOc1ccc([C@@H](C#CC)CC(=O)O)cc1 [Example F21, (3S)-3-[4-(pent-3-yn-1-yloxy)phenyl]hex-4-ynoic acid]
% PTAK-875 [1]: C (51-80% PTAK-875)

CC#C[C@@H](CC(=O)O)c1ccc(OCC#CCC)cc1 [Example F22, (3S)-3-[4-(pent-2-yn-1-yloxy)phenyl]hex-4-ynoic acid]
% PTAK-875 [1]: C (51-80% PTAK-875)

CC#C[C@@H](CC(=O)O)c1ccc(OCCC(C)C)cc1 [Example F24, (3S)-3-[4-(3-methylbutoxy)phenyl]hex-4-ynoic acid]
MIN6Insulin @10 uM [3]: 2.627
AUC for glucose (0-540 min.) [2]: 24289.7
AUC for insulin (0-180 min.) [2]: 329.0
melting point: 26.4 to 27.1 °C

CC#C[C@@H](CC(=O)O)c1ccc(OCCC(C)(C)C)cc1 [Example F27, (3S)-3-[4-(3,3-dimethylbutoxy)phenyl]hex-4-ynoic acid]
% PTAK-875 [1]: D (21-50% PTAK-875)

CC#C[C@@H](CC(=O)O)c1ccc(OCC=C(C)C)cc1 [Example F28, (3S)-3-{4[(3-methylbut-2-en-1-yl)oxy]phenyl}hex-4-ynoic acid]
MIN6Insulin @10 uM [3]: 2.782
AUC for glucose (0-540 min.) [2]: 28377.4
AUC for insulin (0-180 min.) [2]: 499.2
melting point: 52.1 to 53.1 °C

C=C(C)CCOc1ccc([C@@H](C#CC)CC(=O)O)cc1 [Example F30, (3S)-3-{4[(3-methylbut-3-en-1-yl)oxy]phenyl}hex-4-ynoic acid]
% PTAK-875 [1]: A (>120% PTAK-875)

CC#C[C@@H](CC(=O)O)c1ccc(OCC(C)=C(C)C)cc1 [Example F33, (3S)-3-{4-[(2,3-dimethylbut-2-en-1-yl)oxy]phenyl}hex-4-ynoic acid]
MIN6Insulin @10 uM [3]: 3.895
AUC for glucose (0-540 min.) [2]: 19393.1
AUC for insulin (0-180 min.) [2]: 519.1

C=C(C)/C=C/COc1ccc([C@@H](C#CC)CC(=O)O)cc1 [Example F34, (3S)-3-(4-{[(2E)-4-methylpenta-2,4-dien-1-yl]oxy}phenyl)hex-4-ynoic acid]
% PTAK-875 [1]: A (>120% PTAK-875)
melting point: 94.7 to 95.7 °C

CC#C[C@@H](CC(=O)O)c1ccc(OCCCC(F)(F)F)cc1 [Example F39, (3S)-3-[4-(4,4,4-trifluorobutoxy)phenyl]hex-4-ynoic acid]
% PTAK-875 [1]: B (81-120% PTAK-875)

CC#C[C@@H](CC(=O)O)c1ccc(OCCCCC(F)(F)F)cc1 [Example F40, (3S)-3-{4[(5,5,5-trifluoropentyl)oxy]phenyl}hex-4-ynoic acid]
% PTAK-875 [1]: B (81-120% PTAK-875)

CC#C[C@@H](CC(=O)O)c1ccc(OCc2cccc(-c3ccc(C(F)(F)F)cc3)c2)cc1 [Example R2, (3S)-3-[4-({3-[4-(trifluoromethyl)phenyl]phenyl}methoxy)phenyl]-hex-4-ynoic acid, reference compound]
MIN6Insulin @10 uM [3]: 1.567
insulin plasma level [4]: enhanced insulin plasma level

CC(C)C[C@H](CN)CC(=O)O [Pregabalin, reference compound]
Applied pressure causing the response, sick animal (neuropathic) after compound administration ([5]; 3 mg/kg p.o.): 2.04 g
Applied pressure causing the response, sick animal (neuropathic) after compound administration ([5]; 10 mg/kg p.o.): 2.65 g
Applied pressure causing the response, sick animal (neuropathic) after compound administration ([5]; 30 mg/kg p.o.): 4.11 g
